Measured values reported in patent US9452154B2, “Methods for treating HCV” (Gilead Sciences, Inc., priority 2010, dated 2016).
Where “and” joins values, the source holds several entries; their conditions need not be identical. Equal entries are not always repeated. Where two headings read alike, the source gives them in different places.

Assays:
HCV genotype 1a replicon [1] = test: Biological Example 3: HCV genotype 1a replicon assay, EC50; type: cell-based; details: Hepatitis C virus, 72 h, 3 days, read-out: EC50
Description: The HCV genotype 1a replicon cell line used in this study was described previously. The cells were grown in cell culture medium containing Dulbecco's Modified Eagle Medium (DMEM) with GlutaMAX (Gibco, Carlsbad, Calif., Cat#10569-044), supplemented with 10% FBS (HyClone, Logan, Utah, Cat#SH30071.03), 100 Units/mL Penicillin, 100 μg/mL Streptomycin (Gibco, Carlsbad, Calif., Cat#15140-122), and 0.1 mM non-essential amino acids (Gibco, Carlsbad, Calif., Cat#11140-050). Replicon cells were maintained in 0.5 mg/mL Geneticin (Invitrogen, Carlsbad, Calif., Cat#10131-035) to prevent the loss of HCV replicon. The cells were passaged every 3-4 days before reaching confluency.
(§1) [formula] where XC is the fluorescence signal from the compound-treated well; MB is the average fluorescence signal from puromycin-treated wells; MD is the average fluorescence signal from DMSO-treated wells. The anti-HCV replication activity was determined by the luminescence signal generated from the reporter renilla luciferase of the HCV replicon. The percent inhibition on HCV replicon was calculated using equation 1, where XC is the luminescence signal from compound-treated well; MB is average luminescence signal from the ITMN-191-treated wells; MD is the average luminescence signal from DMSO-treated wells.
(§2) Both CC50 and EC50 values were obtained using Pipeline Pilot 5.0 software package (Accelrys, San Diego, Calif.) by nonlinear regression fitting of experimental data to equation 2: […]

[2] = Biological Example 3: cytotoxicity (calcein AM), CC50; type: cell-based; details: human, Huh-7 cells carrying a HCV genotype 1a replicon; HCV genotype 1a replicon cells; calcein AM
Description: The HCV replicon assay was a multiplex assay which can assess both cytotoxicity and anti-replicon activity from the same well. The CC50 assay was performed first.
The cytotoxicity effect was determined by calcein AM conversion to fluorescent product. The percent cytotoxicity was calculated by equation 1:
as §1, §2

GT-1b Huh-lunet cells = test: Biological Example 4: antiviral combination studies with Compound 5 (MacSynergy II); type: cell-based, HCV; details: in combination with Compound 5, 1b replicon cells
HCV 1b replicon system = test: Biological Example 5: antiviral combination studies with Compound 6 (MacSynergy II); type: cell-based; details: in combination with Compound 6
[3] = test system: GT1b and GT1a mutant replicons; test: Biological Example 8: summary of cross resistance of mutant replicons; type: cell-based, HCV
Description: (§3) GT1b and GT1a replicons carrying Renilla Luciferase reporter were used to generate the mutant replicons. The mutations were introduced into the replicon construct by site-directed mutagenesis and confirmed by sequencing. Mutant replicon RNAs were generated from DNA by in vitro transcription and transfected into Huh-7 Lunet or C1 cells
(§4) Compounds were serially diluted 1:3 in 100% DMSO (Sigma). These serial dilutions were added to the cells at a 1:200 dilution to achieve a final concentration of 0.5% DMSO in a total volume of 200 μL. […] EC50 values were calculated using Prism.
(§5) For comparison, a fold change of 0-3 is considered “sensitive”, a fold change of 3-10 is considered “low”, a fold change of 10-50 is considered “medium” and a fold change of greater than […] is considered “high”.

[4] = human; 800 mg/day; cited from earlier work
HCV genotype 1a replicon [5] = test: Biological Example 3: antiviral combination studies with Compound 4 (MacSynergy II); details: in combination with Compound 4
[6] = test system: Genotype 1b replicon cells; test: Biological Example 6: compound concentration required to suppress replicon RNA by 1-1.5 log over 6 days (QRT-PCR); type: cell-based, HCV; details: 6 day assay
Description: Flasks were incubated at 37° C., media and compounds were refreshed every two days. After 6 days of incubation the replicon cells were collected for RNA extraction and replicon RNA QRT-PCR analysis.

[7] = Drug-drug interaction: exposure on co-administration with Compound 2
[8] = test system: Huh-7 cells carrying a HCV genotype 1a replicon; test: Biological Example 3: cytotoxicity in combination studies (MacSynergy II)
[9] = test system: NS3 GT1a mutant replicons; type: cell-based, HCV
Description: as §3, §4, §5

[10] = test system: NS3 GT1b mutant replicons; type: cell-based, HCV
Description: as §3, §4, §5

[11] = all single NS3 PI-resistant mutants
[12] = triple class mutants that confer resistance to PI, NS5A and Compound 1

NC(=O)c1ncn([C@@H]2O[C@H](CO)[C@@H](O)[C@H]2O)n1 [Ribavirin, 1-β-D-ribofuranosyl-1H-1,2,4-Triazole-3-carboxamide, reference compound]
EC50 (HCV genotype 1a replicon [1]): 36.5 ± 17.5 µM | CC50 at 3 days [2]: > 88.8 µM | Antagonism Volume (GT-1b Huh-lunet cells): −12 ± 9 nM^2 | Interaction (GT-1b Huh-lunet cells): Additive | Synergy Volume (GT-1b Huh-lunet cells): 12 ± 8 nM^2 | Antagonism Volume (HCV 1b replicon system): −0.5 ± 0.1 nM^2 | Interaction (HCV 1b replicon system): Moderate Synergy | Synergy Volume (HCV 1b replicon system): 61 nM^2 and 61 ± 0.5 nM^2 | susceptibility of mutants [3, 11]: full susceptibility | susceptibility of mutants [3, 12]: susceptible | steady-state plasma concentration [4]: 6 to 11 µM | Antagonism Volume (HCV genotype 1a replicon [5]): −43 nM^2% and −43 ± 20 nM^2% | Synergy Volume (HCV genotype 1a replicon [5]): 1 ± 1 nM^2%

Fc1ccccc1-c1nc2ccn(Cc3ccc(-c4ccc(C(F)(F)F)cc4C(F)(F)F)nn3)cc-2n1 [Compound 1, 5-((6-(2,4-bis(trifluoromethyl)phenyl)pyridazin-3-yl)methyl)-2-(2-fluorophenyl)-5H-imidazo[4,5-c]pyridine]
EC50 (HCV genotype 1a replicon [1]): 0.019 ± 0.008 µM | CC50 at 3 days [2]: > 44.4 µM | Antagonism Volume (GT-1b Huh-lunet cells): 0 ± 0 nM^2 | Synergy Volume (GT-1b Huh-lunet cells): 70 ± 26 nM^2 | Antagonism Volume (HCV 1b replicon system): −17 ± 0.7 nM^2 | Interaction (HCV 1b replicon system): Minor Synergy | Synergy Volume (HCV 1b replicon system): 34 nM^2 and 34 ± 9.9 nM^2 | Compound concentration able to induce replicon RNA 1-1.5 log drop [6]: 10 nM | susceptibility of mutants [3, 11]: full susceptibility | increase of exposure when combined with Compound 2 [7]: 2-3 × | Antagonism Volume (cytotoxicity) ([8]; in combination with Compound 4): 0 ± 1 nM^2% | Interaction (cytotoxicity) ([8]; in combination with Compound 4): Additivity (Additivity: ≦25 and >−25 nM^2%) | Synergy Volume (cytotoxicity) ([8]; in combination with Compound 4): 13 ± 11 nM^2% | Antagonism Volume (HCV genotype 1a replicon [5]): −1 ± 2 nM^2% | Synergy Volume (HCV genotype 1a replicon [5]): 34 ± 26 nM^2%

CC(C)OC(=O)[C@H](C)N[P@](=O)(OC[C@H]1O[C@@](C#N)(c2ccc3c(N)ncnn23)[C@](C)(O)[C@@H]1OC(=O)C(C)C)Oc1ccccc1 [Compound 4]
CC50 at 3 days [2]: > 44.4 µM | Compound concentration able to induce replicon RNA 1-1.5 log drop [6]: 1000 nM | fold change in EC50 vs wild-type GT1a ([9]; mutant A156T): 0.2 fold | fold change in EC50 vs wild-type GT1a ([9]; mutant D168A): 0.9 fold | fold change in EC50 vs wild-type GT1a ([9]; mutant D168E): 1.5 fold | fold change in EC50 vs wild-type GT1a ([9]; mutant D168G): 0.8 fold | fold change in EC50 vs wild-type GT1a ([9]; mutant D168H): 1.0 fold | fold change in EC50 vs wild-type GT1a ([9]; mutant D168N): 1.0 fold | fold change in EC50 vs wild-type GT1a ([9]; mutant D168V): 1.4 fold | fold change in EC50 vs wild-type GT1a ([9]; mutant D168Y): 1.0 fold | fold change in EC50 vs wild-type GT1a ([9]; mutant R155I): 0.6 fold | fold change in EC50 vs wild-type GT1a ([9]; mutant R155K): 0.7 fold | fold change in EC50 vs wild-type GT1a ([9]; mutant R155K + L31M): 0.4 fold | fold change in EC50 vs wild-type GT1a ([9]; mutant R155K + L31M + Y448H): 0.6 fold | fold change in EC50 vs wild-type GT1a ([9]; mutant R155K + M28T): 0.2 fold | fold change in EC50 vs wild-type GT1a ([9]; mutant R155K + M28T + Y448H): 0.3 fold | fold change in EC50 vs wild-type GT1a ([9]; mutant R155K + Q30H + Y448H): 0.9 fold | fold change in EC50 vs wild-type GT1a ([9]; mutant R155K + Q30R): 0.9 fold | fold change in EC50 vs wild-type GT1a ([9]; mutant R155K + Y93H): 0.3 fold | fold change in EC50 vs wild-type GT1a ([9]; mutant R155K + Y488H (first line, r20)): 0.7 fold | fold change in EC50 vs wild-type GT1a ([9]; mutant R155K + Y488H (second line, r26)): 0.5 fold | fold change in EC50 vs wild-type GT1a ([9]; mutant R155M): 0.4 fold | fold change in EC50 vs wild-type GT1a ([9]; mutant R155S): 0.2 fold | fold change in EC50 vs wild-type GT1a ([9]; mutant R155T): 0.2 fold | fold change in EC50 vs wild-type GT1a ([9]; mutant R155W): 0.7 fold | fold change in EC50 vs wild-type GT1a ([9]; mutant R155k + Q30H): 0.6 fold | fold change in EC50 vs wild-type GT1b ([10]; mutant A156D): 0.4 fold | fold change in EC50 vs wild-type GT1b ([10]; mutant A156G): 0.6 fold | fold change in EC50 vs wild-type GT1b ([10]; mutant A156T): 0.9 fold | fold change in EC50 vs wild-type GT1b ([10]; mutant A156V): 0.6 fold | fold change in EC50 vs wild-type GT1b ([10]; mutant D168A): 1.0 fold | fold change in EC50 vs wild-type GT1b ([10]; mutant D168E): 1.0 fold | fold change in EC50 vs wild-type GT1b ([10]; mutant D168E + L31V + Y448H): 1.1 fold | fold change in EC50 vs wild-type GT1b ([10]; mutant D168E + Y93H + Y448H): 0.9 fold | fold change in EC50 vs wild-type GT1b ([10]; mutant D168E + Y448H): 0.7 fold | fold change in EC50 vs wild-type GT1b ([10]; mutant D168G): 0.7 fold | fold change in EC50 vs wild-type GT1b ([10]; mutant D168H): 1.7 fold | fold change in EC50 vs wild-type GT1b ([10]; mutant D168H + C445F): 0.5 fold | fold change in EC50 vs wild-type GT1b ([10]; mutant D168L + C445F): 0.3 fold | fold change in EC50 vs wild-type GT1b ([10]; mutant D168N): 1.2 fold | fold change in EC50 vs wild-type GT1b ([10]; mutant D168T): 1.4 fold | fold change in EC50 vs wild-type GT1b ([10]; mutant D168V): 0.9 fold | fold change in EC50 vs wild-type GT1b ([10]; mutant D168V + C445F): 0.7 fold | fold change in EC50 vs wild-type GT1b ([10]; mutant D168V + L31V + Y448H): 0.6 fold | fold change in EC50 vs wild-type GT1b ([10]; mutant D168V + Y93H + Y448H): 0.8 fold | fold change in EC50 vs wild-type GT1b ([10]; mutant D168V + Y448H): 0.9 fold | fold change in EC50 vs wild-type GT1b ([10]; mutant D168Y): 0.5 fold | fold change in EC50 vs wild-type GT1b ([10]; mutant L31V + D168E): 1.6 fold | fold change in EC50 vs wild-type GT1b ([10]; mutant L31V + D168V): 1.1 fold | fold change in EC50 vs wild-type GT1b ([10]; mutant R155C): 0.8 fold | fold change in EC50 vs wild-type GT1b ([10]; mutant R155G): 0.2 fold | fold change in EC50 vs wild-type GT1b ([10]; mutant R155K): 0.6 fold | fold change in EC50 vs wild-type GT1b ([10]; mutant R155L): 0.7 fold | fold change in EC50 vs wild-type GT1b ([10]; mutant R155Q): 0.8 fold | fold change in EC50 vs wild-type GT1b ([10]; mutant R155W): 0.5 fold | fold change in EC50 vs wild-type GT1b ([10]; mutant Y93H + D168E): 1.3 fold | fold change in EC50 vs wild-type GT1b ([10]; mutant Y93H + D168V): 1.0 fold | susceptibility of mutants [3, 11]: full susceptibility | susceptibility of mutants [3, 12]: susceptible | Antagonism Volume (cytotoxicity) ([8]; in combination with Ribavirin): −1 ± 2 μM^2% | Interaction (cytotoxicity) ([8]; in combination with Ribavirin): Additivity (Additivity: ≦25 and >−25 nM^2%) | Synergy Volume (cytotoxicity) ([8]; in combination with Ribavirin): 4 ± 3 μM^2%
